The assay has as its system Jurkat NF-kB reporter, TCR-induced, luciferase luminescence. Put plainly: T-cell NF-kB luciferase reporter inhibition – Jurkat cells, luminescence, dose response (AID 489035).

Calls of active or inactive are those of the source. The rule behind the calls is not given here.

The term IC50 denotes the concentration at which inhibition is half-maximal.

As for `CCN(CC)c1ccc2nc3ccccc3[n+](CC)c2c1`, the IC50 was 12.4 µM.

Regarding `Cc1ccc(C)c(N=Nc2ccc(O)c3ncccc23)c1`, the IC50 was 28.3 µM (inactive).

For `CCOc1ccc(N/C(N)=N/c2nc(CSc3nnc(C)s3)cc(=O)[nH]2)cc1`, the IC50 is > 80 µM (inactive).

Consider `CCOC(=O)C(C)Oc1cccc2c(=O)n(CC(=O)NCc3ccco3)ccc12` (stereo not given), for which the IC50 is > 80 µM (inactive).

As for `c1ccc(-c2noc(-c3ccc4c(c3)OCO4)n2)nc1`, the IC50 was 0.55 µM.

For `Cn1nc(-c2ccccn2)nc2c(=O)n(C)c(=O)nc1-2`, the half-inhibitory concentration (IC50) was 12.4 µM.

Regarding `Clc1cccc(Cl)c1/C=N/Nc1c(Cl)cncc1Cl`, the IC50 is > 80 µM (inactive).

With `O=C(O)c1ccc(-c2ccc(-c3ccccc3)cc2)s1`, the IC50 is 1.39 µM.

For the compound `Cc1ccc2oc(/N=C(\N)NC(=O)C(C)(C)C)nc2c1`, the IC50 is 6.68 µM.

For `Cc1ccc(/C=C/c2ccc(N(C)C)cc2)[n+](C)c1`, the IC50 was > 80 µM (inactive).

As for `Cc1ccc(-c2cc3c(N=O)c4ccccc4c-3n[nH]2)cc1`, the IC50 is 1.65 µM.

Turning to `CSc1ccc(COC(=O)c2cc([N+](=O)[O-])ccc2N2CCOCC2)cc1`, the IC50 was > 80 µM (inactive).

Take `CC1=C([N+](=O)[O-])C(c2ccccc2)C2=C(N1)c1ccccc1C2=O` (stereo not given): the IC50 was 30.3 µM (inactive).

As to `c1ccc(-c2noc(-c3ccc4ccccc4c3)n2)nc1`, the IC50 was 0.46 µM.

Take `CCCCCCCCCCCCCCCC[n+]1ccc(/C=N/O)cc1`: the IC50 was 1.57 µM.

Consider `CCN1C/C(=C/c2ccc(OC)c(O)c2)C(=O)/C(=C/c2ccc(OC)c(O)c2)C1`, for which the IC50 is 22.5 µM (inactive).

With `CCc1ccc(/C=N/NC(=O)c2cc(-c3ccncc3)nc3ccccc23)s1`, the IC50 was > 80 µM (inactive).

Turning to `COc1cccc(N2CCN(C(=O)c3ccc(CS(=O)c4ccccc4C)o3)CC2)c1` (stereo not given), the IC50 was 16.7 µM.

For the compound `CCOC(=O)Nc1nc(-c2ccccc2)c(C(=O)c2ccc(Cl)cc2)s1`, the IC50 was 4.16 µM.

Regarding `CCOC(=O)/C=C/S(=O)(=O)c1ccc(NC(C)=O)cc1`, the IC50 was 1.12 µM.

As for `Cc1ccc(C(=O)c2cc([N+](=O)[O-])ccc2N2CCCCC2)cc1`, the IC50 is > 80 µM (inactive).

Consider `Cc1ccc(C(=O)Nc2cnc3ccccc3c2)cc1`, for which the IC50 was 0.37 µM.

Take `Cc1noc(C)c1COc1ccc(CC(=O)NCc2ccccc2)cc1`: the IC50 was > 80 µM (inactive).

Take `CSc1nc(N(C)NC(=O)c2cccc(C)c2)c2ccccc2n1`: the IC50 is 27.8 µM (inactive).

In the case of `O=C(Nc1ccncc1)c1ccc(Cl)c(S(=O)(=O)N2CCc3ccccc32)c1`, the IC50 was > 80 µM (inactive).

On to `CCOc1ccccc1C1CC(=O)Nc2cc3c(cc21)OCCO3` (stereo not given), for which the IC50 is 3.96 µM.

For `Cc1ccc2[nH]c3c(c2c1)CCCC3NC(=O)CCl` (stereo not given), the IC50 was 0.32 µM.

`Cc1ccc(Nc2nc(-c3c(C)nc4ccccn34)cs2)cc1`: the IC50 is 24.6 µM (inactive).

`CC(C)(C)OC(=O)NCCCCCc1cn(CC(=O)NCCCCCCCCCCC(=O)N2CCN(C(=O)OC(C)(C)C)CC2)nn1`: the IC50 was > 80 µM (inactive).

Regarding `CC(C)c1oc(=O)cc2c1[C@@H](O)[C@H]1OC(=O)[C@@]3(C)C[C@@H](O)[C@@H](O)[C@@]2(C)C13` (stereo not given in full), the IC50 was 1.08 µM.

In the case of `Cc1csc2sc(-c3ccnc(SCC(=O)NCc4ccccc4)n3)c(C)c12`, the IC50 is 17 µM.

Regarding `CCn1c(C)cc(C(=O)CN2C(=O)c3ccccc3S2(=O)=O)c1C`, the IC50 is 1.68 µM.

For the compound `CCCCCCCCCCCCCCCC[n+]1ccc(C(N)=O)cc1`, the IC50 was 1.49 µM.

In the case of `CC1CCN(c2c(NCc3ccc(C(=O)N4CCc5ccccc54)cc3)c(=O)c2=O)CC1`, the IC50 is > 80 µM (inactive).

For `O=C1c2c(O)ccc(O)c2C(=O)c2c(NCCNCCO)ccc(NCCNCCO)c21`, the IC50 is 2.23 µM.

For the compound `CCOc1ccccc1N1CC(O)=C(c2nc3ccccc3s2)C1=N`, the IC50 was 26.7 µM (inactive).

As for `COC(=O)C(Cc1ccc(N(CCCl)CCCl)cc1)N=Cc1ccccc1O` (stereo not given), the IC50 is 0.65 µM.

`CC(C)(C)C(=O)Nc1ccc(NC(=O)c2ccco2)nc1`: the IC50 is 0.81 µM.

`O=C(Nc1ccc(S(=O)(=O)Nc2ccccc2)cc1)c1ccc(CN2CCOCC2)cc1`: the IC50 was 29.5 µM (inactive).

For `COc1cc(C2c3cc4c(cc3C(OC3OC5COC(c6cccs6)OC5C(O)C3O)C3COC(=O)C23)OCO4)cc(OC)c1O` (stereo not given), the IC50 is 0.68 µM.

`Cc1cc(NC(=O)CSc2nc3c(sc4ccccc43)c(=O)n2CCCN2CCOCC2)n[nH]1`: the IC50 is > 80 µM (inactive).

In the case of `O=C(Nc1ccc(CSc2ccccc2)cc1)c1ccc(CN2CCOCC2)cc1`, the IC50 is > 80 µM (inactive).

For the compound `COc1cc(-c2noc(C)c2/C=C/c2ccc(OC(C)=O)cc2)cc(OC)c1OC`, the IC50 is 31.5 µM (inactive).

Turning to `CCC(C)(C)c1ccc(OCCCC[n+]2cccc(C)c2C)c(C(C)(C)CC)c1`, the IC50 is 4.76 µM.

As for `CCCCC(=O)NC(c1ccc(Cl)cc1)c1ccc2cccnc2c1O` (stereo not given), the 50% inhibitory concentration (IC50) was 8.39 µM.

Consider `CN(Cc1ccccc1)C1=CC(=[N+]2CCCCC2)CC(C)(C)C1`, for which the IC50 was 20.3 µM (inactive).

With `O=C(Nc1ccc(S(=O)(=O)N2CCN(Cc3ccccc3)CC2)cc1)c1cnccn1`, the IC50 is > 80 µM (inactive).

With `O=C(c1ccccc1)c1nn(-c2ccc(Cl)cc2)c(=O)cc1C(F)(F)F`, the IC50 is 1.25 µM.

For `O=C(Nc1ncc(Cc2ccc(SC(F)F)cc2)s1)c1ccc(OC(F)F)cc1`, the IC50 is 7.42 µM.

Take `Cc1cc(NC(=O)CSc2nc3ccccc3c(=O)n2C2CCCC2)no1`: the IC50 is > 80 µM (inactive).

Regarding `Cc1ccc(/C=N/NC(=O)c2c(C)nc3ccc(Br)cn23)cc1`, the IC50 is > 80 µM (inactive).

As to `COc1ccccc1N1CCN(C(=O)c2cc(=O)c3cc(C)cc(C)c3o2)CC1`, the IC50 was 2.79 µM.

As for `Cc1cc(=O)oc2cc(OCC3CC(c4ccccc4Cl)=NO3)ccc12` (stereo not given), the IC50 was > 80 µM (inactive).

Turning to `Cc1ccsc1/C=N/NC(=O)c1cc(-c2ccncc2)nc2ccccc12`, the IC50 was 35.1 µM (inactive).

On to `O=C(Nc1nc2ccc(S(=O)(=O)N3CCCC3)cc2s1)C1CCCCC1`, for which the IC50 is > 80 µM (inactive).

Regarding `COc1cc2c(c(OC)c1OC)-c1ccc(O)cc1[C@@H](NC(C)=O)CC2`, the IC50 was > 80 µM (inactive).

Turning to `CCOC(=O)c1[nH]c(C)c(C(=O)Nc2ccccc2C)c1C`, the IC50 was under 0.16 µM.

Regarding `CN(C)S(=O)(=O)c1ccc(Nc2nc(C3CC3)nc3c2nnn3Cc2ccccc2Cl)cc1`, the IC50 is > 80 µM (inactive).

In the case of `COc1cc2nc(CN3CC=C(c4ccccc4)CC3)[nH]c(=O)c2cc1OC`, the IC50 was > 80 µM (inactive).

With `O=C(Nc1ccc(N2CCN(C(=O)c3ccc(Cl)cc3)CC2)cc1)c1ccc2c(c1)OCCO2`, the IC50 is > 80 µM (inactive).

Consider `CCOc1ccc(N(CC(=O)Nc2ccccc2C)S(=O)(=O)c2c(C)noc2C)cc1`, for which the IC50 was > 80 µM (inactive).

As for `COc1ccccc1C(=O)Nc1nc2ccccc2s1`, the IC50 was 0.77 µM.

Consider `Cc1ccc(-c2nc(-c3ccccn3)no2)cc1`, for which the IC50 was 2.34 µM.

As to `CSc1nccc(-c2nn(-c3ccc(C)cc3)ccc2=O)n1`, the IC50 was 33.3 µM (inactive).

With `O=C(Nc1cccc2ccccc12)OC1C=CS(=O)(=O)C1` (stereo not given), the IC50 is 1.06 µM.

Turning to `COCCCNC(=O)C(=O)Nc1ccc2c(c1)N(S(=O)(=O)c1cccs1)CCC2`, the IC50 was 5.46 µM.

As for `CCCCCn1c2c(c(=N)c3ccccc31)CCC2`, the IC50 was > 80 µM (inactive).

In the case of `COC(=O)Nc1ccc(S(=O)(=O)N2c3ccccc3CCC2C)cc1` (stereo not given), the IC50 is 26.6 µM (inactive).

With `CCCCN1/C(=C/c2ccc3ccccc3[n+]2CC)Sc2ccccc21`, the IC50 is > 80 µM (inactive).

On to `Cc1ccc(COC(=O)c2cc([N+](=O)[O-])ccc2N2CCOCC2)cc1`, for which the IC50 was 49 µM (inactive).

As to `CCOC(=O)Nc1nc(-c2ccccc2)c(C(=O)c2ccccc2)s1`, the IC50 is > 80 µM (inactive).

Take `Cc1ccc(O)c(N=Nc2nccs2)c1`: the IC50 is 1.79 µM.

In the case of `COc1cc(Cn2c(-c3nonc3N)nc3ccccc32)ccc1C`, the IC50 was > 80 µM (inactive).

With `Cn1c2c(c(=O)n(C)c1=O)C(C(F)(F)F)(C(F)(F)F)N=C(c1ccc(Cl)cc1)N2`, the IC50 was > 80 µM (inactive).

Turning to `Cc1cc(C)cc(NC(=O)c2cc(C)n(Cc3cccs3)c2C)c1`, the IC50 was 5.13 µM.

`COc1ccc([C@H]2CC(=O)C=C(c3ccc(OC)cc3OC)C2)cc1`: the IC50 is > 80 µM (inactive).

Consider `CCc1c(C)nc2ncnn2c1NCCc1ccc(OC)cc1`, for which the IC50 is > 80 µM (inactive).

Turning to `CCN(CC)c1ccc2nc3ccc(N)cc3[n+](-c3ccccc3)c2c1`, the IC50 was 2.62 µM.

For the compound `CCCCCCCCn1c2c(c(=N)c3ccccc31)CCC2`, the IC50 is 3.43 µM.

As for `Cc1ccc(-c2cc(-c3ccc(C)cc3)[n+](-c3ccccc3)c(-c3ccc(C)cc3)c2)cc1`, the IC50 is 6.13 µM.

On to `Cc1ccc(C(=O)Nc2cc3ccccc3oc2=O)cc1`, for which the IC50 is 0.32 µM.

For the compound `COc1ccccc1N=C(C)C1=C(O)CC(c2ccccc2)CC1=O` (stereo not given), the IC50 was > 80 µM (inactive).

For the compound `Cc1c(C(=O)N2CCOCC2)[nH]c2c1C(=O)CC(c1ccccc1Cl)C2` (stereo not given), the IC50 was > 80 µM (inactive).

As to `COc1ccc(Nc2ncnc3ccc(Br)cc23)c(OC)c1`, the IC50 is 22 µM (inactive).

Regarding `C/C=C(\C)C(=O)N[C@@H](c1ccccc1)[C@@H](O)C(=O)O[C@H]1C[C@@]2(O)[C@@H](OC(=O)c3ccccc3)C3[C@](C)(C(=O)[C@H](O)C(=C1C)C2(C)C)[C@@H](O)C[C@H]1OC[C@@]31OC(C)=O` (stereo not given in full), the IC50 was > 80 µM (inactive).

Take `CC1=CC(C)(C)N(S(=O)(=O)c2ccc(C)cc2)c2cc(C)ccc21`: the IC50 is 6.77 µM.

As for `CCO[C@@H]1OC(C(=O)NCc2nc3ccccc3[nH]2)=C[C@H](C(C)(C)C)[C@H]1CCCO`, the IC50 was > 80 µM (inactive).

In the case of `Cc1nnc(N/N=C/c2ccccn2)[nH]c1=O`, the IC50 was 1.18 µM.

For the compound `CC[n+]1cc(C)ccc1/C=C/c1ccc(N(C)C)cc1`, the IC50 was > 80 µM (inactive).

Turning to `C=C(C)COc1ccc(-c2n[nH]c(C)c2-c2ccc(OC)c(OC)c2)c(O)c1`, the IC50 is 21.1 µM (inactive).

For the origin of these results see PubChem BioAssay AID489035 (Sanford-Burnham Center for Chemical Genomics, 2010).
